Test results as given in US20240067600A1, “SMALL MOLECULE INHIBITORS OF THE MITOCHONDRIAL PERMEABILITY TRANSITION PORE (mtPTP)” (UNIVERSITY OF KANSAS, priority 2014, published 2024).

Key:
Type in all cases: in vivo
[1] = test system: exon 9 col6a1 morphant zebrafish; assay: Touch-evoked escape response of exon 9 col6a1 morphant zebrafish embryos; settings: 5 and 10 μM in fish water from 21 hpf; read at 48 hpf
Method: (§1) Zebrafish and embryo maintenance. Adult zebrafish were maintained in the facility of the University of Padova containing aerated, 28.5° C.-conditioned saline water according to standard protocols. Fish were kept under a 14 h light-10 h dark cycle. For mating, males and females were separated in the late afternoon, and were freed to start courtship the next morning, which ended with egg deposition and fecundation. Eggs were collected, washed with fish water (0.5 mM NaH2PO4, 0.5 mM NaHPO4, 0.2 mg/L methylene blue, 3 mg/L instant ocean) and embryos were maintained at 28.5° C. All protocols and manipulations with zebrafish were performed as described in C. B. Kimmel, W. W. Ballard, S. R. Kimmel, B. Ullmann, T. F. Schilling, Dev. Dyn. […]
(§2) Motor activity. Spontaneous coiling rates were recorded by observing the number of coiling events in 15 s for single embryos at 24 hpf using light microscopy. Touch-evoked escape response was measured at 48 hpf by observing the ability of larvae to escape after touching the body with a little tip. […]
(§3) Statistical analysis. Differences between control and compound treated samples were determined by one-way ANOVA test with Bonferroni correction using GraphPad Prism (version 5.1 for Windows). […] For FIG. 3, the total number of embryos used is n=35 for each condition; *p<0.05, ***p<0.001, as determined by χ^2 test and oneway ANOVA with Bonferroni correction.

[2] = test system: exon 9 col6a1 morphant zebrafish; assay: Spontaneous coiling of exon 9 col6a1 morphant zebrafish embryos; settings: 5 and 10 μM in fish water from 21 hpf; read at 24 hpf
Method: as §1, §2, §3

[3] = test system: exon 9 col6a1 morphant zebrafish; assay: Muscle birefringence assay in exon 9 col6a1 morphant zebrafish embryos
Method: as §1, with “C.” for “C. B. Kimmel, W. W. Ballard, S. R. Kimmel, B. Ullmann, T. F. Schilling, Dev. Dyn.”
Birefringence assay. Muscle birefringence was measured at 48 hpf on tricaine-anesthetized embryos by taking advantage of muscle fiber anisotropy. It was measured using two polarizing filters on a Leica M165FC stereomicroscope. Briefly, anesthetized embryos were placed on a glass slide, and muscle light refraction was analyzed by using two polarizing filters. […] Integrated area of birefringence was calculated by using ImageJ software, as disclosed in J. Berger, T. Sztal, P. D. Currie, Biochem. Biophys. […]
Statistical analysis. Differences between control and compound treated samples were determined by one-way ANOVA test with Bonferroni correction using GraphPad Prism (version 5.1 for Windows). […]

Question: What does the source list for `Cc1c(Cl)cccc1NC(=O)c1cc(-c2ccc(F)c(O)c2)on1` [compound 60, N-(3-Chloro-2-methylphenyl)-5-(4-fluoro-3-hydroxyphenyl)isoxazole-3-carboxamide]?
Answer: motor function: touch-evoked response (FIG. 2) [1]: dramatic improvement in motor function; motor function: spontaneous coiling events (FIG. 1) [2]: dramatic improvement in motor function; muscle defects by muscle birefringence (FIG. 3) ([3]; 5 and 10 μM in fish water from 21 hpf, read at 48 hpf): largely ameliorated; total birefringence scores ([3]; 48 hpf, ANOVA, p<0.05): significant recovery of muscle defects
